From patent publication US20130288331A1, “PEPTIDOMIMETIC COMPOUNDS AND RELATED METHODS” (priority 2012, published 2013)

Legend:
[1] = target: T1, HIV-1 protease (Human immunodeficiency virus type 1 group M subtype B, UniProt P04585); experiment: Zhang-Poorman kinetic assay of HIV-1 protease dimerization inhibition; type: biochemical; conditions: for Ki: calculated from y-intercepts using the Zhang-Poorman equation, HIV-1 protease 0.6 to 5.1 nM
Description: If a compound acts as a dimerization inhibitor, the Zhang-Poorman plot gives a line with a slope similar to that obtained for the uninhibited control but with a different intercept; active-site inhibitors yield different slopes compared with the uninhibited control. For this assay, HIV-1 protease was used at concentrations from 0.6 to 5.1 nM. Substrate solutions were diluted to ¼ solution from the original solution, and then used for the kinetic assay. HIV-1 protease (40 μL) was incubated with or without an inhibitor (10 μL) at the desired concentration for 15 min at 25° C. The diluted substrate solution (50 μL) was added to the incubated solution. Fluorescence was monitored for 15 min at 30° C. in a fluorescence microplate reader (BioTek) at Ex/Em=340/490 nm for C-protected inhibitors, and Ex/Em=490/520 nm for deprotected inhibitors.
Slopes for 1lai-H (8.2±0.6) and 1fla-H (9.3±1.2) compared with uninhibited HIV-1 (9.0±0.6) have different y-intercepts (1lai-H y-intercepts 0.19, 1fla-H y-intercepts 0.73, control y-intercepts 0.013). y-Intercepts of uninhibited HIV-1 have different values between experiments for C-protected and deprotected compounds because the substrates used in the assay are different (see above). The results are consistent with 1-H-1-^tBu (side-chains as indicated above) acting as dimerization inhibitors. We note that it has been reported that inhibition of HIV-1 protease activities by dimerization inhibitors is dependent on the time of pre-incubation with the enzyme and inversely dependent on enzyme concentration; consequently, these factors must be standardized if comparing our data with those from different labs.

[2] = target: T1, HIV-1 protease; experiment: FRET assay of HIV-1 protease inhibitory activity (IC50); type: biochemical; conditions: for IC50: HIV-1 protease 10.2 nM, 15 min preincubation at 25° C., EDANS/DABCYL substrate for C-protected, HiLyte Fluor 488/QXL 520 substrate for deprotected inhibitors
Description: The HIV-1 protease inhibitory activities of the compounds were determined by a FRET method. HIV-1 protease stock solution was diluted with assay buffer (0.1M sodium acetate, 1.0 M sodium chloride, 1.0 mM EDTA, 1.0 mM DTT, 10% DMSO, and 1.0 mg/mL BSA, pH 4.7). All inhibitors were dissolved in DMSO, and diluted to appropriate concentrations with deionized water such that the maximum conc. of DMSO in the buffer was 8.5%. EDANS/DABCYL-based FRET peptide substrate (Ex/Em=340/490 nm) solution in SensoLyte® 490 HIV Protease Assay Kit (Cat. #71127) and HiLyte Fluor™ 488/QXL™ 520-based FRET peptide substrate (Ex/Em=490/520 nm) solution in SensoLyte® 520 HIV Protease Assay Kit (Cat. #71147) were purchased from Anaspec. We needed to use these two different substrates because the compounds without C-protection (throughout this means protection on the oxygen at the C-terminus, a terminal OH) have weak fluorescence that interferes with that from the EDANS/DABCYL-based FRET peptide substrate (Ex/Em=340/490 nm) so an alternative substrate was used.
For the determination of IC50 values, HIV-1 protease (40 μL, 10.2 nM final concentration) and inhibitors (10 μL) were incubated for 15 min at 25° C. Substrate solutions (50 μL) in the buffer were added into the incubated solution to initiate the reaction. EDANS/DABCYL-based FRET peptide substrate was used for C-protected inhibitors, and HiLyte Fluor™ 488/QXL™ 520-based FRET peptide substrate was used for deprotected inhibitors. The total assay volume was 100 μL. Fluorescence was monitored for 5 min at 30° C. in a fluorescence microplate reader (BioTek) at Ex/Em=340/490 nm for ^tBu-protected inhibitors, and Ex/Em=490/520 nm for deprotected inhibitors. The initial velocities were plotted against log [inhibitor] and a sigmoidal curve was fitted to the data points using Graphpad Prism 5 software to obtain IC50 values.

[3] = target: GAPDH (Homo sapiens, UniProt P04406); conditions: rescue from apoptosis in vitro; cited from earlier work
GAPDH, sequence (P04406 whole entry, species assumed): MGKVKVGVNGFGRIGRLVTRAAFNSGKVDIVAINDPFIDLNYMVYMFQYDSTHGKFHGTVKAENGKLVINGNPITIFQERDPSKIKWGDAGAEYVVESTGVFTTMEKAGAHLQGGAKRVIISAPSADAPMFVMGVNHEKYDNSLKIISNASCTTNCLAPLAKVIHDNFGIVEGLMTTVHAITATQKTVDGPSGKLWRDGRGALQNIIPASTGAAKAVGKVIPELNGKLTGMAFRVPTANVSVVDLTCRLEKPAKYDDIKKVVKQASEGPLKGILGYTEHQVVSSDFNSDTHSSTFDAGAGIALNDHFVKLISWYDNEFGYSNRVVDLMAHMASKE

[4] = FIG. 2A, C-protected compounds, Ex/Em=340/490 nm substrate, control 0.42
[5] = FIG. 2A, C-protected compounds, Ex/Em=340/490 nm substrate, uninhibited HIV-1 9.7±0.7
[6] = FIG. 2B, deprotected compounds, Ex/Em=490/520 nm substrate, control 0.013
[7] = FIG. 2B, deprotected compounds, Ex/Em=490/520 nm substrate, uninhibited HIV-1 9.0±0.6

Compound | Ki [1] [µM] | IC50 [2] [µM] | further results
CC(C)C[C@H]1C(N2CC[C@H](N3C(=O)C=C(OC(C)(C)C)[C@@H]3C)C2)=CC(=O)N1[C@H]1CCN(C2=CC(=O)N[C@H]2Cc2ccccc2)C1 [1fla-^tBu, (S)-1-((S)-1-((S)-2-benzyl-5-oxo-2,5-dihydro-1H-pyrrol-3-yl)pyrrolidin-3-yl)-4-((S)-3-((S)-3-(tert-butoxy)-2-methyl-5-oxo-2,5-dihydro-1H-pyrrol-1-yl)pyrrolidin-1-yl)-5-isobutyl-1H-pyrrol-2(5H)-one] | 21 ± 2.1 | 54.9 ± 6 | y-intercept of Zhang-Poorman plot [1, 4]: 1.4; slope of Zhang-Poorman plot [1, 5]: 9.5±0.6
CC[C@H](C)[C@H]1C(OC(C)(C)C)=CC(=O)N1[C@H]1CCN(C2=CC(=O)N([C@H]3CCN(C4=CC(=O)N[C@H]4CC(C)C)C3)[C@H]2C)C1 [1lai-^tBu, (S)-4-(tert-butoxy)-5-((S)-sec-butyl)-1-((S)-1-((S)-1-((S)-1-((S)-2-isobutyl-5-oxo-2,5-dihydro-1H-pyrrol-3-yl)pyrrolidin-3-yl)-2-methyl-5-oxo-2,5-dihydro-1H-pyrrol-3-yl)pyrrolidin-3-yl)-1H-pyrrol-2(5H)-one] | 19.4 ± 4.1 | 111 ± 18 | y-intercept of Zhang-Poorman plot [1, 4]: 2.6; slope of Zhang-Poorman plot [1, 5]: 10.4±1.0
CC(C)C[C@H]1C(OC(C)(C)C)=CC(=O)N1[C@H]1CCN(C2=CC(=O)NC2Cc2ccccc2)C1 (stereo partly drawn) [2fl-^tBu, (5S)-1-((3S)-1-(2-benzyl-5-oxo-2,5-dihydro-1H-pyrrol-3-yl)pyrrolidin-3-yl)-4-(tert-butoxy)-5-isobutyl-1H-pyrrol-2(5H)-one] | – | 516 | –
CC(C)C[C@@H]1NC(=O)C=C1N1CC[C@H](N2C(=O)C=C(OC(C)(C)C)[C@@H]2C)C1 [2la-^tBu, (5S)-4-(tert-butoxy)-1-((3S)-1-(2-isobutyl-5-oxo-2,5-dihydro-1H-pyrrol-3-yl)pyrrolidin-3-yl)-5-methyl-1H-pyrrol-2(5H)-one] | – | 176 ± 16 | –
C#CCN(C)CC1=Cc2ccccc2Oc2ccccc21 [CGP3466] | – | – | rescuing effect relative to deprenyl [3]: 100 ×
CC(C)C[C@H]1C(N2CC[C@H](N3C(=O)CC(=O)[C@@H]3C)C2)=CC(=O)N1[C@H]1CCN(C2=CC(=O)N[C@H]2Cc2ccccc2)C1 [Compound 1fla-H] | 0.93 ± 0.3 | 46.5 ± 8 | y-intercept of Zhang-Poorman plot [1, 6]: 0.73; slope of Zhang-Poorman plot [1, 7]: 9.3±1.2
CC[C@H](C)[C@H]1C(=O)CC(=O)N1[C@H]1CCN(C2=CC(=O)N([C@H]3CCN(C4=CC(=O)N[C@H]4CC(C)C)C3)[C@H]2C)C1 [Compound 1lai-H, (3′S,5S)-5-((S)-sec-butyl)-1′-((S)-1-((S)-1-((S)-2-Isobutyl-5-oxo-2,5-dihydro-1H-pyrrol-3-yl)pyrrolidin-3-yl)-2-methyl-5-oxo-2,5-dihydro-1H-pyrrol-3-yl)-[1,3′-bipyrrolidine]-2,4-dione] | 0.38 ± 0.07 | 3.7 ± 0.3 | y-intercept of Zhang-Poorman plot [1, 6]: 0.19; slope of Zhang-Poorman plot [1, 7]: 8.2±0.6
CC(C)C[C@H]1C(=O)CC(=O)N1[C@H]1CCN(C2=CC(=O)N[C@H]2Cc2ccccc2)C1 [Compound 2fl-H, (3′S,5S)-1′-(2-benzyl-5-oxo-2,5-dihydro-1H-pyrrol-3-yl)-5-isobutyl-[1,3′-bipyrrolidine]-2,4-dione] | – | 419 | –
CC(C)C[C@@H]1NC(=O)C=C1N1CC[C@H](N2C(=O)CC(=O)[C@@H]2C)C1 [Compound 2la-H] | – | – | inhibition of HIV-1 protease ([2]; FRET assay, result in words): did not show any inhibition
CC[C@H](C)C1C(=O)CC(=O)N1[C@H]1CCN(C2=CC(=O)N[C@H]2CC(C)C)C1 (stereo partly drawn) [Compound 2li-H] | – | 623 | –
CC(C)C[C@@H]1NC(=O)C=C1N1CC[C@H](N2C(=O)C=C(NCCOCCOCCNC3=CC(=O)N([C@H]4CCN(C5=CC(=O)N[C@H]5CC(C)C)C4)[C@H]3C)[C@@H]2C)C1 [Compound 13] | – | 84.4 ± 10 | inhibition of HIV-1 protease relative to 2la-^tBu ([2]; comparison of IC50 values): two times better inhibition
